Calls of active or inactive are those of the source. The calls are words filed in the database; no cut-off is given here.
Tests used:
Assay type in all cases: cell-based
[1] = target: T1, Transient receptor potential cation channel subfamily V member 3 (Homo sapiens) (UniProt Q8NET8); assay: Antagonist activity at human TRPV3 channel expressed in HEK293T cells assessed as inhibition of 2-APB induced channel current at 50 uM by whole cell patch clamp recordings relative to control
T1 sequence (whole entry): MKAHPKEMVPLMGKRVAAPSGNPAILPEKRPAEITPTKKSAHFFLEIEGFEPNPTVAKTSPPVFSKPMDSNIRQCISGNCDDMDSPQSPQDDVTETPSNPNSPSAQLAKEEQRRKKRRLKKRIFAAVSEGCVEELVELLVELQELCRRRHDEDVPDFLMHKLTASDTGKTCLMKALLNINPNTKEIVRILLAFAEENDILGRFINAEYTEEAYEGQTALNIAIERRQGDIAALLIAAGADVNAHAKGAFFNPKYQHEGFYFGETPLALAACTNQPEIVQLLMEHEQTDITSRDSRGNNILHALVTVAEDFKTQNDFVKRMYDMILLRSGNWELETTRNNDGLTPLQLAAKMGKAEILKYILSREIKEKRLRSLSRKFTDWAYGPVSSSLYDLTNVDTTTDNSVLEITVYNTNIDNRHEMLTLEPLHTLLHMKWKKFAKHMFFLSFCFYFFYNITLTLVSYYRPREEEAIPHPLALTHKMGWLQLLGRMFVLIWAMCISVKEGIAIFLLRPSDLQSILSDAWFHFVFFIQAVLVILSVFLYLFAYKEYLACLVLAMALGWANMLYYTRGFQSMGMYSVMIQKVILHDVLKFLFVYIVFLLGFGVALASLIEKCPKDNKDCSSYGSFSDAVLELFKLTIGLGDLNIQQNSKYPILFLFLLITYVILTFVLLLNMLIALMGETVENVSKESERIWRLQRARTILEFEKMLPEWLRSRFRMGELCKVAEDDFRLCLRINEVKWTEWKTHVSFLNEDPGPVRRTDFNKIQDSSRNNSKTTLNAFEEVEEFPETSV

[2] = target: Transient receptor potential cation channel subfamily A member 1 (Homo sapiens) (UniProt O75762); assay: Antagonist activity at TRPA1 (unknown origin) expressed in HEK293T cells assessed as inhibition of agonist induced channel current by whole-cell patch clamp recordings
[3] = target: Transient receptor potential cation channel subfamily V member 4 (Homo sapiens) (UniProt Q9HBA0); assay: Antagonist activity at TRPV4 (unknown origin) expressed in HEK293T cells assessed as inhibition of agonist induced channel current by whole-cell patch clamp recordings
[4] = target: Transient receptor potential cation channel subfamily V member 1 (Homo sapiens) (UniProt Q8NER1); assay: Antagonist activity at TRPV1 (unknown origin) expressed in HEK293T cells assessed as inhibition of agonist induced channel current by whole-cell patch clamp recordings
[5] = target: T2, Transient receptor potential cation channel subfamily V member 3 (Homo sapiens, UniProt Q8NET8); assay: Antagonist activity at human TRPV3 channel expressed in HEK293T cells assessed as inhibition of 2-APB induced channel current by whole cell patch clamp recordings
T2 sequence (Q8NET8 whole entry): T1 sequence (whole entry)

[6] = target: Transient receptor potential cation channel subfamily M member 8 (Homo sapiens) (UniProt Q7Z2W7); assay: Antagonist activity at TRPM8 (unknown origin) expressed in HEK293T cells assessed as inhibition of agonist induced channel current by whole-cell patch clamp recordings
Chain of Transient receptor potential cation channel subfamily M member 8 (Homo sapiens) (Q7Z2W7 whole entry, looked up): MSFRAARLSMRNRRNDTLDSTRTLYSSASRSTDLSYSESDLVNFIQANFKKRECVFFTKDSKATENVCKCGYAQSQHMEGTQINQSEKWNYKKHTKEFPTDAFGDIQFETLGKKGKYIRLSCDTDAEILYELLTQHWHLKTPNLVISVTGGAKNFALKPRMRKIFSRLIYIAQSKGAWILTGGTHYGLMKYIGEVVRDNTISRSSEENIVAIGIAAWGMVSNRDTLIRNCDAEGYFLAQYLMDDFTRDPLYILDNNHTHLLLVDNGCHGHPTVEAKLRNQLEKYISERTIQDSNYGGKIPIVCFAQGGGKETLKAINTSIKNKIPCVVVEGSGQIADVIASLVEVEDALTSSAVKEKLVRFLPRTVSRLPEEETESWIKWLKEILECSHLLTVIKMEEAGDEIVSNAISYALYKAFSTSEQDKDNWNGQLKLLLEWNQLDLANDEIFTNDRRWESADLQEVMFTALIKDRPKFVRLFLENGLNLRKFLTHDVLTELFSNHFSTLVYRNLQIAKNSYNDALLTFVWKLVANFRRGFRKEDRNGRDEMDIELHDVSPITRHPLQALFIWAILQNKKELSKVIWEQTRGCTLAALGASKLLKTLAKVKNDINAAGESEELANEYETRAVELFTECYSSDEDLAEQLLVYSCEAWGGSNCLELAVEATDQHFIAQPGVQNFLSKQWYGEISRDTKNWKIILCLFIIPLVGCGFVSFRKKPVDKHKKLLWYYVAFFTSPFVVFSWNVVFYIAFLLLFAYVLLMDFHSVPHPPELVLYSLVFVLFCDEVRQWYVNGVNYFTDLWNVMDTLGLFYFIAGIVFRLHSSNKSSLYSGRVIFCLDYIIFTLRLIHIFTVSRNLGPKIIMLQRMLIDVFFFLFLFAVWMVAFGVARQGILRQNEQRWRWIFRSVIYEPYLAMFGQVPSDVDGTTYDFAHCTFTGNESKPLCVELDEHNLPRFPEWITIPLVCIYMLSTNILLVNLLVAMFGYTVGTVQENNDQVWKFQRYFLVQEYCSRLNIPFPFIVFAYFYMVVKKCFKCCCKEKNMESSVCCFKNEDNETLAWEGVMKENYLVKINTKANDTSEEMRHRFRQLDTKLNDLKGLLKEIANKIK

Chain of Transient receptor potential cation channel subfamily A member 1 (Homo sapiens) (O75762 whole entry): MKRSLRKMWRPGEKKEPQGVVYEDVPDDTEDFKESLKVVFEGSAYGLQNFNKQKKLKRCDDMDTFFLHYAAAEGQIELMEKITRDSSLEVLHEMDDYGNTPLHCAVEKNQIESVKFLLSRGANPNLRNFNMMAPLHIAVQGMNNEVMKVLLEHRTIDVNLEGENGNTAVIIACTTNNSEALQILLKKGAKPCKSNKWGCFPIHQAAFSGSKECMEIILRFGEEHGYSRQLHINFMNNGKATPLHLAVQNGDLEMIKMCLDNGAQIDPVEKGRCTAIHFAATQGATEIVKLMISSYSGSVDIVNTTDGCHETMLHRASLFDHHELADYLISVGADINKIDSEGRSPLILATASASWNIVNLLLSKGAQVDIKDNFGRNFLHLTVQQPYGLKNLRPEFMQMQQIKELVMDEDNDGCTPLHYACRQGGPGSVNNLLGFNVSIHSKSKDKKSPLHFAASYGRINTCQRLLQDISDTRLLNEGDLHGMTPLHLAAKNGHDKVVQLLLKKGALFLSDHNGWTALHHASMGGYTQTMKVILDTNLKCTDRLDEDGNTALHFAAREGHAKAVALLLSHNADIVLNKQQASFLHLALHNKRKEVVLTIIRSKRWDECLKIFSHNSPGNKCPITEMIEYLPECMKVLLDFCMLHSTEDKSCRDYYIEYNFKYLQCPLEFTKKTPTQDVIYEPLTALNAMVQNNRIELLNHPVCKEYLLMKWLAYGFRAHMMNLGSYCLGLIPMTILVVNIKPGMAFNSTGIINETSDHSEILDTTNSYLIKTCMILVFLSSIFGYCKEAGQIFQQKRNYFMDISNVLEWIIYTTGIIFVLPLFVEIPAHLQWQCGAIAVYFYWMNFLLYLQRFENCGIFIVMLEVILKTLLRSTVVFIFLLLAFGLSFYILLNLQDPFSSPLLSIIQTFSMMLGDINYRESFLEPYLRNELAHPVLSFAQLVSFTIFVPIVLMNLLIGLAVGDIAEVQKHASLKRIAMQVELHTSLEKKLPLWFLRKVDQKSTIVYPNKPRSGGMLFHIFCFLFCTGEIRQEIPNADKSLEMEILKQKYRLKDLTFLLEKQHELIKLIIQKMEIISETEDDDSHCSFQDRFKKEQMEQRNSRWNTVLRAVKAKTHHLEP
Chain of Transient receptor potential cation channel subfamily V member 1 (Homo sapiens) (Q8NER1 whole entry): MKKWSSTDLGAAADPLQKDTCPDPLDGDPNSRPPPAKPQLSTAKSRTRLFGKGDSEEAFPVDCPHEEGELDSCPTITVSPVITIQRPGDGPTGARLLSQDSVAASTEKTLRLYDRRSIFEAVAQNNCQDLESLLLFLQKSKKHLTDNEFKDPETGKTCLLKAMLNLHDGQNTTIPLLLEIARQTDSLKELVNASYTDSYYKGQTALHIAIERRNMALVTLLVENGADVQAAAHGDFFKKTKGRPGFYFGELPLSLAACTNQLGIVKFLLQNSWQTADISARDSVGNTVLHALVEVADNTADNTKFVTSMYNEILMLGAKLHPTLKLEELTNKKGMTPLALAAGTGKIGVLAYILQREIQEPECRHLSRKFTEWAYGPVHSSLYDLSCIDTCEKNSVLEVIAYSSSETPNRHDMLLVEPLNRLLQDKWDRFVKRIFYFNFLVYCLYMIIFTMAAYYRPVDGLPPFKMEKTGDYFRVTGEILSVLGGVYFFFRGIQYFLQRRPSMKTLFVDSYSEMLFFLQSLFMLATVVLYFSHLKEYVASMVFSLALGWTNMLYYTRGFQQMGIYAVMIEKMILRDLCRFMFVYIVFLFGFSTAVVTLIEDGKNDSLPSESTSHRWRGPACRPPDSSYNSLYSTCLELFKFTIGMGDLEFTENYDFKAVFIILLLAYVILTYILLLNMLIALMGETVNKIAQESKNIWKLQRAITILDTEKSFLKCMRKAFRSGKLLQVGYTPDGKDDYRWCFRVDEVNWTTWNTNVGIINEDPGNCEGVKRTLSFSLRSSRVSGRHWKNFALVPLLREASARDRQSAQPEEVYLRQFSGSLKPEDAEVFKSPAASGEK
Chain of Transient receptor potential cation channel subfamily V member 4 (Homo sapiens) (Q9HBA0 whole entry): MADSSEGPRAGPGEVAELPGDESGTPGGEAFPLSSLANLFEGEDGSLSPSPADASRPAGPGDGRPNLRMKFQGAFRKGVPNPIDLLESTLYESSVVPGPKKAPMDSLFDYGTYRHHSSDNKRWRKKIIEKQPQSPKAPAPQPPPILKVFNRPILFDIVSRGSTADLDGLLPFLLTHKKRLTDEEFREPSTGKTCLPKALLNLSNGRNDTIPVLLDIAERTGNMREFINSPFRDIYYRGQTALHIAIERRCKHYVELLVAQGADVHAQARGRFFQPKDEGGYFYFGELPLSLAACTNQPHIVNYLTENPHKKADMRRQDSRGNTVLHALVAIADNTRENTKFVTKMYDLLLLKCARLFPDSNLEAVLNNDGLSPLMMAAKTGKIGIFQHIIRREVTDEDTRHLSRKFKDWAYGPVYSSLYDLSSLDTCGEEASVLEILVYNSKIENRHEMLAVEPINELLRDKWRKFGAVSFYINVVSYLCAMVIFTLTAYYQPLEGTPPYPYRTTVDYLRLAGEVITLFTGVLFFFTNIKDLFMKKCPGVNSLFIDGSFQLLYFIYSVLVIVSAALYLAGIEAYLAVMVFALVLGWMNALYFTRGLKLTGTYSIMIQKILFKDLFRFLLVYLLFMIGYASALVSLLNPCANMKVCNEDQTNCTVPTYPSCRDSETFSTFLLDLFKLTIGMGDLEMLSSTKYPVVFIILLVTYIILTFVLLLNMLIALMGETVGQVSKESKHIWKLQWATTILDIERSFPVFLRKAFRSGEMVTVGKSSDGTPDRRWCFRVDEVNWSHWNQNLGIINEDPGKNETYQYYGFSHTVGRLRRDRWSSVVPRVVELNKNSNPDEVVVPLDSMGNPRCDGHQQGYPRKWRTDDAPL

inhibition [1] | Compound | other results
21.2% | O=c1cc(-c2ccc(F)cc2)oc2cc(O)cc(O)c12 | –
4.68% | COc1ccc(-c2cc(=O)c3c(O)cccc3o2)cc1 | –
– | COc1ccc(-c2cc(=O)c3c(O)cc(O)cc3o2)cc1 [ACACETIN] | Activity [2]: inactive; Activity [3]: inactive; inhibition ([1]; filed as antagonist): 61.8%; Activity [4]: inactive; IC50 [5]: 0.62 µM; Activity [6]: inactive
5.55% | COCOc1cc(OCOC)c2c(c1)OC(c1ccc(F)cc1)CC2=O (stereo not drawn) | –
– | C[C@@H]1O[C@@H](O[C@@H]2[C@@H](O)[C@H](OCCc3ccc(O)c(O)c3)O[C@H](CO[C@@H]3OC[C@](O)(CO)[C@H]3O)[C@H]2OC(=O)/C=C/c2ccc(O)c(O)c2)[C@H](O)[C@H](O)[C@H]1O | inhibition ([1]; filed as antagonist): 58.8%; IC50 [5]: 10.8 µM
4.96% | COc1ccc(C2CC(=O)c3c(O)cccc3O2)cc1 (stereo not drawn) | –
10.3% | Cc1ccc(-c2cc(=O)c3c(O)cc(O)cc3o2)cc1 | –
1.94% | O=c1cc(-c2ccc(Br)cc2)oc2cc(O)ccc12 | –
3.81% | O=c1cc(-c2ccc(OC(F)(F)F)cc2)oc2cc(O)cc(O)c12 | –
– | O=c1cc(-c2ccc(O)cc2Br)oc2cc(O)cc(O)c12 | inhibition ([1]; filed as antagonist): 51.7%
13% | O=c1cc(-c2ccc(O)cc2F)oc2cc(O)cc(O)c12 | –
31.4% | O=c1cc(-c2cccc(O)c2)oc2c(O)c(O)ccc12 | –

— ChEMBL document CHEMBL5356963, “Discovery of flavone-derivatives as the new skeleton of transient receptor potential vanilloid 3 channel antagonists” (Bioorg Med Chem Lett, 2024)
